Results on 16 molecules are retold here after paper PMC3103432, “Effect of reverse transcriptase inhibitors on LINE-1 and Ty1 reverse transcriptase activities and on LINE-1 retrotransposition” (BMC Biochemistry, 2011).

Where two headings read alike, the source gives them in different places. Marks after values point to notes of the source that are not given here.

For data set [1], the system named is ORFeus-Hs (synthetic human L1) retrotransposition in HeLa cells. The data set is described as follows: Cell-based L1 retrotransposition assay, ORFeus-Hs. To be noted: for activity at 5 µM / activity at 50 µM / Relative retrotransposition efficiency: control = 1.0, normalized to cell viability; for activity at 5 µM / activity at 50 µM: read-out: Relative retrotransposition efficiency. As for the experimental part: (§1) The cell-based retrotransposition assay was conducted as described. HeLa cells (a gift from Dr. John Moran, University of Michigan) were seeded in 6-well dishes in DMEM (2×10^5 cells/well). The next day cells were transfected with Fugene 6 according to the manufacturer's manual. Each transfection consisted of 96 μl Opti-Mem, 1 μg pWA195 DNA and 3 μl Fugene 6. Sixteen hours after transfection, the cells were trypsinized and transferred to a 6 cm plate in DMEM with 2.5 μg/ml puromycin and the RT inhibitors. Three days after puromycin selection, dead cells were removed and puromycin resistant cells were trypsinized and counted with a hemocytometer. The puromycin resistant cells were plated on a 10 cm plate (1×10^4 cells/plate) in 10 ml DMEM with 500 μg/ml G418. The RT inhibitors were added to the same concentration as in the puromycin selection. […] Two weeks later, G418 resistant cells were fixed to the plate and stained with 0.1% crystal violet. The number of G418 resistant colonies was counted to calculate retrotransposition frequency. Six independent assays were done for each RT inhibitor.

In data set [2] the target is T1, Ty1 RT (Saccharomyces cerevisiae, UniProt Q99231).
T1 construct: recombinant Ty1 RT, which required C-terminal residues of integrase for its RT activity; made in house; host or cells: E. coli BL21 (co-transformed with chaperone plasmid pG-Tf2)
T1 sequence (Q99231 1103-1755): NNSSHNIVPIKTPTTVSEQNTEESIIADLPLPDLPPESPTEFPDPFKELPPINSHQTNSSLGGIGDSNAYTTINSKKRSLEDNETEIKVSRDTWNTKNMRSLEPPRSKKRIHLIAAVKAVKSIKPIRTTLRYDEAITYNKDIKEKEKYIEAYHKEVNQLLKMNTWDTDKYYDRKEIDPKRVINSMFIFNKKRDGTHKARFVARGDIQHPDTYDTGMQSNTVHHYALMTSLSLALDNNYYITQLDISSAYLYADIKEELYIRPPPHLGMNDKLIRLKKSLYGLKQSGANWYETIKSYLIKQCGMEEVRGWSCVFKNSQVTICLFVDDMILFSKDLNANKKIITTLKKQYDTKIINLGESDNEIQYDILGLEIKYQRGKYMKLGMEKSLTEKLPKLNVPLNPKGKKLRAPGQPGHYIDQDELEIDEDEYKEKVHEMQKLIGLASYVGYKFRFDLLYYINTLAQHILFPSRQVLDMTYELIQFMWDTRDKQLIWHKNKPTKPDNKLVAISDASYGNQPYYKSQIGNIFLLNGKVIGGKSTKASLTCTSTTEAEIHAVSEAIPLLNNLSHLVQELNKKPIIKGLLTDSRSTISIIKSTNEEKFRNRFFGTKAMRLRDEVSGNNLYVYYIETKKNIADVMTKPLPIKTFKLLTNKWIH
The data set is described as follows: In vitro RT assay with recombinant Ty1 RT. To be noted: for increase of Ty1 RT activity: at low concentrations; for high concentration at which Ty1 RT was inhibited: inhibited only at this high concentration. The format is biochemical. As to the method: (§2) The RT assays for HIV-1 and L1 RT were performed in a 20 μl reaction mixtures containing 50 mM Tris-Cl (pH 8.0), 50 mM KCl, 5 mM MgCl2, 10 mM DDT, 0.01 U template/primer, 1 μl [α-^32P] dTTP or [α-^32P] dCTP (final concentration 0.17 μM, 3000 Ci/mmol, 10 mCi/ml) at 37°C for 30 min. Then the mixture was spotted on DE81 paper and washed three times with 2×SSC buffer for a total time of 30 min. The DE81 paper was dried and counted by scintillation counter Beckman LS6000SC. RT assay for Ty1 RT was done under the same buffer condition except that 20 mM MgCl2 was used and the reaction mixture was incubated at room temperature. In each reaction the amounts of L1, HIV-1 and Ty1 RTs with the same specific activity were added. To test the inhibition of the RT inhibitors, 1 μl inhibitor was included in the mixture to obtain the desired concentration. […] All assays were done at least in triplicate.

The target of data set [3] is T2, human L1 reverse transcriptase (MBP-RT fusion) (Homo sapiens, UniProt O00370).
T2 construct: Human L1 ORF2 amino acid 238-1061 was inserted behind MBP gene in frame; made in house; host or cells: E. coli BL21
Put plainly: In vitro (cell-free) RT assay and kinetic analysis with recombinant L1 RT. The class given is biochemical. The conditions noted are these: for IC50: calculated as IC50 = Ki(1+ S/Km), read-out: IC50 against L1 RT; for Ki: competitive with respect to dTTP (AZTTP, d4TTP) or dCTP (ddCTP, 3TCTP), Lineweaver-Burk, read-out: Ki against L1 RT; for high concentration at which L1 RT was inhibited: inhibited only at this high concentration. As to the method:
as §2
The kinetic analysis was performed under the same conditions described above but with various concentrations of substrates and inhibitors as indicated in the text. Poly (rA)-oligo (dT)12-18 and [α-^32P] dTTP were used to analyze AZTTP and d4TTP. Poly (rI)-oligo (dC)12-18 and [α-^32P] dCTP were used to assay ddCTP and 3TCTP.

The test system of data set [4] is ORFeus-Mm (synthetic mouse L1) retrotransposition. The data set is described as follows: Cell-based L1 retrotransposition assay, ORFeus-Mm. The conditions noted are these: control = 1.0, normalized to cell viability. As for the experimental part:
as §1

The test system of a further data set is HIV-1. Details: method as in PMID 2413459. The conditions noted are these: cited from earlier work.
The test system of another data set is HIV-1 RT. To be noted: read-out: IC50 against HIV-1 RT; previously reported; cited from earlier work.
Another data set has as its system HeLa cells. Put plainly: Cell cytotoxicity of RT inhibitors. The class given is cell-based, human. As to the method: Untransfected Hela cells were plated on 10 cm plate (500 cells/plate) with and without RT inhibitors. Ten days later, cells were fixed to the plate and stained with 0.1% crystal violet. The number of colonies was counted to calculate colony formation ability. Colony formation ability of control assay without inhibitors was considered as 1.0 and colony formation ability in the presence of inhibitors was indicated as relative efficiency with respect to the control.

The test system of data set [5] is AMV RT, MLV RT, human DNA polymerases α, β, γ and Klenow fragment. To be noted: cited from earlier work.
Data set [6] deals with T1, Ty1 RT. Details: method as in PMID 10816427, PMID 11577982. The conditions noted are these: ratio of ddGTP/GTP 0.2; cited from earlier work.

As for `Nc1ccn([C@H]2CS[C@@H](CO)O2)c(=O)n1` [3TC, 2',3'-dideoxy-3'-thiacytidine], the activity at 5 µM in [1] (Homo sapiens, HeLa, 5 μM) stood at 8 ± 3%. In data set [1] (Homo sapiens, HeLa, 50 μM), the activity at 50 µM worked out at 3 ± 3%.

As to `Nc1ccn([C@@H]2CS[C@H](COP(=O)(O)OP(=O)(O)OP(=O)(O)O)O2)c(=O)n1` [3TCTP, 2',3'-dideoxy-3'-thiacytidine triphosphate], the “increase of Ty1 RT activity” value on Ty1 RT [2] was “up to 40%”. In addition, in data set [3], the IC50 was 18.6 nM and the Ki turned out to be 12.9 ± 0.16 nM.

On to `Nc1nc(NC2CC2)c2ncn(C3C=C[C@H](CO)C3)c2n1` (stereo partly drawn) [ABC, [(1R)-4-[2-amino-6-(cyclopropylamino)purin-9-yl]-1-cyclopent-2-enyl]methanol], for which the Relative retrotransposition efficiency is 0.80 ± 0.05 in data set [4] (5 μM) and 0.15 ± 0.03 in data set [4] (50 μM). The activity at 5 µM in [1] (Homo sapiens, HeLa, 5 μM) is 74 ± 6%. The activity at 50 µM in data set [1] (Homo sapiens, HeLa, 50 μM) amounted to 20 ± 4%.

Regarding `Cc1cn([C@H]2C[C@H](N=[N+]=[N-])[C@@H](CO)O2)c(=O)[nH]c1=O` [AZT, azidothymidine], the Relative retrotransposition efficiency in data set [4] (5 μM) was 0.75 ± 0.08; in data set [4] (50 μM), 0.16 ± 0.02. Besides, the activity at 5 µM in data set [1] (Homo sapiens, HeLa, 5 μM) came out at 62 ± 6%. Moreover, the activity at 50 µM in data set [1] (Homo sapiens, HeLa, 50 μM) stood at 23 ± 4%. Moreover, in the data set with HIV-1, the “concentration completely inhibiting HIV-1 production” value was 1 to 3 µM.

Regarding `Cc1cn([C@H]2C[C@H](N=[N+]=[N-])[C@@H](CO[P@](=O)(O)O[P@](=O)(O)OP(=O)(O)O)O2)c(=O)[nH]c1=O` [AZTTP, azidothymidine triphosphate], the “increase of Ty1 RT activity” value at Ty1 RT [2] was “up to 40%”. In [3], the IC50 is 19.8 nM and the Ki turned out to be 16.4 ± 4.21 nM.

As to `CC(C)Nc1cccnc1N1CCN(C(=O)c2cc3cc(NS(C)(=O)=O)ccc3[nH]2)CC1` [DLV, delavirdine], the IC50 with HIV-1 RT is 260 nM. The figures for the Relative retrotransposition efficiency in data set [4] (5 μM) and in [4] (50 μM) were 0.60 ± 0.05 and 0.02 ± 0.01, respectively. Further, the activity at 5 µM in [1] (Homo sapiens, HeLa, 5 μM) stood at 63%. Besides, in [1] (Homo sapiens, HeLa, 50 μM), the activity at 50 µM was 28 ± 3%. In addition, the inhibition at 50 µM in [1] (Homo sapiens, HeLa, 50 μM, read-out: inhibition of L1 retrotransposition efficiency) was roughly 72%. The “concentration causing massive HeLa cell death” value in the data set with HeLa cells was determined as 100 µM. For the same molecule, the “high concentration at which Ty1 RT was inhibited” value on Ty1 RT [2] stood at 50 µM. In addition, the “high concentration at which L1 RT was inhibited” value in [3] is 50 µM.

Take `O=C1Nc2ccc(Cl)cc2[C@@](C#CC2CC2)(C(F)(F)F)O1` [EFV, efavirenz]: in data set [5], the “activity against a variety of polymerases” value was “inactive”. The activity at 5 µM in data set [1] (Homo sapiens, HeLa, 5 μM) stood at 28 ± 2%. In addition, the inhibition at 5 µM in [1] (Homo sapiens, HeLa, 5 μM, read-out: inhibition of L1 retrotransposition efficiency) is roughly 72%. The “concentration causing massive HeLa cell death” value in the data set with HeLa cells was 50 µM. The “high concentration at which Ty1 RT was inhibited” value on Ty1 RT [2] was found to be 500 µM. The “high concentration at which L1 RT was inhibited” value in data set [3] worked out at 500 µM.

For the molecule `Nc1nc(=O)n(C2CSC(CO)O2)cc1F` (stereo not drawn) [FTC, 4-amino-5-fluoro-1-[2-(hydroxymethyl)-1,3-oxathiolan-5-yl]-pyrimidin-2-one], the Relative retrotransposition efficiency in [4] (5 μM) came to 0.34 ± 0.01; in data set [4] (50 μM), 0.26 ± 0.04. Also, in [1] (Homo sapiens, HeLa, 5 μM), the activity at 5 µM was 25 ± 1%. For the same molecule, the activity at 50 µM in data set [1] (Homo sapiens, HeLa, 50 μM) came to 12 ± 4%.

Regarding `Cc1cn([C@H]2C=C[C@@H](CO)O2)c(=O)[nH]c1=O` [d4T, 2'-3'-didehydro-2'-3'-dideoxythymidine], the Relative retrotransposition efficiency in data set [4] (5 μM) worked out at 0.28 ± 0.05; in data set [4] (50 μM), 0.01 ± 0.02; in data set [1] (5 μM) it was 0.50 ± 0.05; in data set [1] (50 μM), 0.05 ± 0.04.

As for `Cc1cn([C@H]2C=C[C@@H](COP(=O)(O)OP(=O)(O)OP(=O)(O)O)O2)c(=O)[nH]c1=O` [d4TTP, 2'-3'-didehydro-2'-3'-dideoxythymidine triphosphate], in [3], the IC50 is 0.88 nM and the Ki amounted to 0.73 ± 0.22 nM.

For `Nc1ccn([C@H]2C[C@H](O)[C@@H](COP(=O)(O)OP(=O)(O)OP(=O)(O)O)O2)c(=O)n1` [dCTP], in [3] (poly (rI)-oligo (dC)12-18, no inhibitor, read-out: Km value for dCTP substrate), the Km came out at 0.38 µM.

For `Cc1cn([C@H]2C[C@H](O)[C@@H](COP(=O)(O)OP(=O)(O)OP(=O)(O)O)O2)c(=O)[nH]c1=O` [dTTP], the Km in data set [3] (poly (rA)-oligo (dT)12-18, no inhibitor, read-out: Km value for dTTP) worked out at 0.83 µM.

Turning to `Nc1ccn([C@H]2CC[C@@H](CO)O2)c(=O)n1` [ddC, 2'-3'-dideoxycytidine], the Relative retrotransposition efficiency in data set [4] (5 μM) is <0.0025^c; in data set [4] (50 μM), <0.0025^c; in data set [1] (50 μM), <0.005^c.

With `Nc1ccn([C@H]2CC[C@@H](COP(=O)(O)OP(=O)(O)OP(=O)(O)O)O2)c(=O)n1` [ddCTP, 2'-3'-dideoxycytidine triphosphate], on Ty1 RT [2], the “increase of Ty1 RT activity” value is recorded as “up to 40%”. Further, in [3], the IC50 is 1.04 nM and the Ki is 0.72 ± 0.16 nM.

Turning to `Nc1nc2c(ncn2[C@H]2CC[C@@H](COP(=O)(O)OP(=O)(O)OP(=O)(O)O)O2)c(=O)[nH]1` [ddGTP], the “decrease of Ty1 RT activity” value on Ty1 RT [6] is 90%.

For the molecule `O=c1[nH]cnc2c1ncn2[C@H]1CC[C@@H](CO)O1` [ddI, 2'-3'-dideoxyinosine], the Relative retrotransposition efficiency in [4] (5 μM) is <0.0025^c; in data set [4] (50 μM), <0.0025^c; in data set [1] (50 μM) it was <0.005^c.

One may read the IC50 as the point on the concentration scale where inhibition reaches its midpoint. For orientation: Ki means the equilibrium dissociation constant of an inhibitor or competing ligand from its target. A word on the inhibition: it is the share of the control response that was lost under treatment. Usually Km stands for the substrate concentration at which the rate is half of its maximum.
